Results taken from the NIST ThermoML archive (doi:10.1016/j.jct.2013.12.009).

Key:
[1] = for surface tension liquid-gas: Pendant drop shape; for mass density: 101 kPa, Liquid, Vibrating tube method
[2] = xn = mol fraction of the nth substance listed; settings: for surface tension liquid-gas: Pendant drop shape; for viscosity / mass density: 101 kPa, Liquid; for viscosity: Concentric cylinders viscometry; for mass density: Vibrating tube method

CO [methanol]
[1]
Settings	mass density [kg/m3]	surface tension liquid-gas [mN/m]
288.15 K	795.8	22.88
298.15 K	786.45	22
308.15 K	777	21.01

CCCC[N+]1(C)CCCC1.O=S(=O)([N-]S(=O)(=O)C(F)(F)F)C(F)(F)F + CC#N
[2]
Settings	mass density, 288.15 K [kg/m3]	mass density, 298.15 K [kg/m3]	mass density, 308.15 K [kg/m3]	surface tension liquid-gas, 288.15 K [mN/m]	surface tension liquid-gas, 298.15 K [mN/m]	surface tension liquid-gas, 308.15 K [mN/m]	viscosity, 288.15 K [mPa·s]	viscosity, 298.15 K [mPa·s]	viscosity, 308.15 K [mPa·s]
x1 = 0.053	941.8	931.2	920.5	30.92	29.78	28.55	–	–	–
x1 = 0.1924	–	–	–	–	–	–	2.41	2.02	1.73
x1 = 0.1989	1156.4	1146.2	1136.2	32.45	31.45	30.57	–	–	–
x1 = 0.3593	1263.1	1253.5	1243.9	33.18	32.48	31.76	–	–	–
x1 = 0.4602	–	–	–	–	–	–	13.16	9.79	7.56
x1 = 0.5201	1322.1	1312.7	1303.4	33.45	32.84	32.2	–	–	–
x1 = 0.598	–	–	–	–	–	–	26.33	18.47	13.58
x1 = 0.6103	1344.7	1335.5	1326.4	33.51	32.97	32.44	–	–	–
x1 = 0.788	1377.3	1368.3	1359.2	33.58	33.13	32.68	–	–	–
x1 = 0.8159	–	–	–	–	–	–	65.88	42.55	29.18
x1 = 0.9394	1396.6	1387.8	1379	33.71	33.2	32.72	–	–	–
x1 = 1	1403.4	1394.5	1385.7	33.71	33.22	32.82	–	–	–

CCCC[N+]1(C)CCCC1.O=S(=O)([N-]S(=O)(=O)C(F)(F)F)C(F)(F)F + CO
[2]
Settings	mass density, 288.15 K [kg/m3]	mass density, 298.15 K [kg/m3]	mass density, 308.15 K [kg/m3]	surface tension liquid-gas, 288.15 K [mN/m]	surface tension liquid-gas, 298.15 K [mN/m]	surface tension liquid-gas, 308.15 K [mN/m]	viscosity, 288.15 K [mPa·s]	viscosity, 298.15 K [mPa·s]	viscosity, 308.15 K [mPa·s]
x1 = 0.0495	970.4	960.7	951.1	24.36	23.54	22.73	–	–	–
x1 = 0.1886	1186.4	1176.8	1167.3	26.9	26.36	25.86	–	–	–
x1 = 0.2054	–	–	–	–	–	–	5.04	3.91	3.11
x1 = 0.3407	1281.7	1272.3	1263	29.25	28.95	28.63	–	–	–
x1 = 0.4365	–	–	–	–	–	–	17.5	12.51	9.35
x1 = 0.4932	1332.2	1323	1313.8	31.03	30.85	30.54	–	–	–
x1 = 0.5394	–	–	–	–	–	–	26.71	18.54	13.51
x1 = 0.6076	1356.2	1347	1338	32.08	31.67	31.36	–	–	–
x1 = 0.637	1361.2	1352.1	1343	32.25	31.94	31.65	–	–	–
x1 = 0.7067	–	–	–	–	–	–	49.43	32.82	23.02
x1 = 0.801	1384	1375	1366.1	33.23	32.77	32.33	–	–	–
x1 = 0.8363	1388.1	1379.1	1370.3	–	–	–	–	–	–
x1 = 0.9135	1395.6	1386.7	1377.9	33.57	33.1	32.65	–	–	–
x1 = 1	1403.4	1394.5	1385.7	33.71	33.22	32.82	–	–	–
